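Results reflect a 48-hour exposure of cells in 96-well plates to compound at five concentrations. Abbreviation: GI50, concentration required for 50% inhibition of growth.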 Calls of active or inactive are those of the source. Rule as the data show it: active = GI50 up to about 1.1 µM and inactive = higher.
Experiments:
Test in all cases: NCI anticancer screen, dose series, 48 h
786-0 = test system: 786-0
A498 = test system: A498
A549 = test system: A549
ACHN = test system: ACHN
BT-549 = test system: BT-549
CAKI-1 = test system: CAKI-1
CCRF-CEM = test system: CCRF-CEM
COLO 205 = test system: COLO 205
DU-145 = test system: DU-145
EKVX = test system: EKVX
HCC 2998 = test system: HCC 2998
HCT-116 = test system: HCT-116
HCT-15 = test system: HCT-15
HL-60 = test system: HL-60
HOP-62 = test system: HOP-62
HOP-92 = test system: HOP-92
HT-29 = test system: HT-29
Hs-578T = test system: Hs-578T
IGROV-1 = test system: IGROV-1
K562 = test system: K562
KM12 = test system: KM12
LOX IMVI = test system: LOX IMVI
M14 = test system: M14
MCF7 = test system: MCF7
MDA-MB-231 = test system: MDA-MB-231
MDA-MB-435 = test system: MDA-MB-435
MDA-N = test system: MDA-N
MOLT-4 = test system: MOLT-4
Malme-3M = test system: Malme-3M
NCI-H226 = test system: NCI-H226
NCI-H23 = test system: NCI-H23
NCI-H460 = test system: NCI-H460
NCI-H522 = test system: NCI-H522
NCI/ADR-RES = test system: NCI/ADR-RES
OVCAR-3 = test system: OVCAR-3
OVCAR-4 = test system: OVCAR-4
OVCAR-8 = test system: OVCAR-8
PC-3 = test system: PC-3
RPMI-8226 = test system: RPMI-8226
SF-268 = test system: SF-268
SF-295 = test system: SF-295
SF-539 = test system: SF-539
SK-MEL-28 = test system: SK-MEL-28
SK-MEL-5 = test system: SK-MEL-5
SK-OV-3 = test system: SK-OV-3
SN12C = test system: SN12C
SNB-19 = test system: SNB-19
SR = test system: SR
SW-620 = test system: SW-620
TK-10 = test system: TK-10
U-251 = test system: U-251
UACC-257 = test system: UACC-257
UACC-62 = test system: UACC-62
UO-31 = test system: UO-31
OVCAR-5 = test system: OVCAR-5
RXF 393 = test system: RXF 393
SK-MEL-2 = test system: SK-MEL-2
SNB-75 = test system: SNB-75

In the case of Cc1ccc2c(=O)c3cccc(CC(=O)O)c3[nH]c2c1C, the GI50 (786-0) is reported as > 100 µM (inactive), the GI50 (A498) is reported as > 100 µM (inactive) and the GI50 (A549) is reported as > 100 µM (inactive). For the same molecule, the GI50 (ACHN) was > 100 µM (inactive), the GI50 (BT-549) was > 100 µM (inactive) and the GI50 (CAKI-1) was > 100 µM (inactive). For the same molecule, the GI50 (CCRF-CEM) was > 100 µM (inactive), the GI50 (COLO 205) was > 100 µM (inactive) and the GI50 (DU-145) was > 100 µM (inactive). The GI50 (EKVX) was > 100 µM (inactive), the GI50 (HCC 2998) was > 10 µM (inactive) and the GI50 (HCT-116) was > 100 µM (inactive). For the same molecule, the GI50 (HCT-15) was over 100 µM, the GI50 (HL-60) was > 100 µM (inactive) and the GI50 (HOP-62) was > 100 µM (inactive). The GI50 (HOP-92) was > 100 µM (inactive), the GI50 (HT-29) was > 100 µM (inactive) and the GI50 (Hs-578T) was 72.1 µM (inactive). For the same molecule, the GI50 (IGROV-1) was > 100 µM (inactive), the GI50 (K562) was > 100 µM (inactive) and the GI50 (KM12) was > 100 µM (inactive). For the same molecule, the GI50 (LOX IMVI) was > 100 µM (inactive), the GI50 (M14) was > 100 µM (inactive) and the GI50 (MCF7) was 71.6 µM (inactive). For the same molecule, the GI50 (MDA-MB-231) was > 100 µM (inactive), the GI50 (MDA-MB-435) was 65.6 µM (inactive) and the GI50 (MDA-N) was > 100 µM (inactive). For the same molecule, the GI50 (MOLT-4) was > 100 µM (inactive), the GI50 (Malme-3M) was > 100 µM (inactive) and the GI50 (NCI-H226) was > 100 µM (inactive). For the same molecule, the GI50 (NCI-H23) was > 100 µM (inactive), the GI50 (NCI-H460) was > 100 µM (inactive) and the GI50 (NCI-H522) was > 100 µM (inactive). The GI50 (NCI/ADR-RES) was > 100 µM (inactive), the GI50 (OVCAR-3) was 57.8 µM (inactive) and the GI50 (OVCAR-4) was > 100 µM (inactive). The GI50 (OVCAR-8) was > 100 µM (inactive), the GI50 (PC-3) was > 100 µM (inactive) and the GI50 (RPMI-8226) was > 100 µM (inactive). The GI50 (SF-268) was 17.5 µM (inactive), the GI50 (SF-295) was > 100 µM (inactive) and the GI50 (SF-539) was > 100 µM (inactive). For the same molecule, the GI50 (SK-MEL-28) was > 100 µM (inactive), the GI50 (SK-MEL-5) was 33.3 µM (inactive) and the GI50 (SK-OV-3) was > 100 µM (inactive). For the same molecule, the GI50 (SN12C) was > 100 µM (inactive), the GI50 (SNB-19) was > 100 µM (inactive) and the GI50 (SR) was > 100 µM (inactive). For the same molecule, the GI50 (SW-620) was > 100 µM (inactive), the GI50 (TK-10) was > 100 µM (inactive) and the GI50 (U-251) was 27.9 µM (inactive). The GI50 (UACC-257) was > 100 µM (inactive), the GI50 (UACC-62) was > 100 µM (inactive) and the GI50 (UO-31) was > 100 µM (inactive).

In the case of CN1C(=O)[C@@H]2[C@@H]3c4ccccc4N[C@@H]3c3[nH]c4ccccc4c3[C@@H]2C1=O, the GI50 (A498) is reported as 25.4 µM (inactive), the GI50 (A549) is reported as 22.8 µM (inactive) and the GI50 (ACHN) is reported as 18.5 µM (inactive). The GI50 (BT-549) was 18.7 µM (inactive), the GI50 (CAKI-1) was 33.2 µM (inactive) and the GI50 (CCRF-CEM) was 17.3 µM (inactive). The GI50 (COLO 205) was 17 µM (inactive), the GI50 (DU-145) was 41.7 µM (inactive) and the GI50 (EKVX) was 27.1 µM (inactive). For the same molecule, the GI50 (HCC 2998) was 18.2 µM (inactive), the GI50 (HCT-116) was 29.4 µM (inactive) and the GI50 (HCT-15) was 18.8 µM. The GI50 (HOP-62) was 19.5 µM (inactive), the GI50 (HOP-92) was 20 µM (inactive) and the GI50 (HT-29) was 36.1 µM (inactive). For the same molecule, the GI50 (Hs-578T) was 28.3 µM (inactive), the GI50 (IGROV-1) was 0.0502 µM (active) and the GI50 (K562) was 22.3 µM (inactive). For the same molecule, the GI50 (LOX IMVI) was 20.6 µM (inactive), the GI50 (MCF7) was 22.4 µM (inactive) and the GI50 (MDA-MB-231) was 21 µM (inactive). The GI50 (MDA-MB-435) was 23.3 µM (inactive), the GI50 (MDA-N) was 31.8 µM (inactive) and the GI50 (MOLT-4) was 19.1 µM (inactive). For the same molecule, the GI50 (NCI-H226) was 60.8 µM (inactive), the GI50 (NCI-H23) was 13.9 µM (inactive) and the GI50 (NCI-H460) was 15.3 µM (inactive). The GI50 (NCI/ADR-RES) was 22.8 µM (inactive), the GI50 (OVCAR-3) was 16.6 µM (inactive) and the GI50 (OVCAR-4) was 16.9 µM (inactive). For the same molecule, the GI50 (OVCAR-5) was 20.1 µM (inactive), the GI50 (OVCAR-8) was 21.6 µM (inactive) and the GI50 (PC-3) was 17.4 µM (inactive). The GI50 (RPMI-8226) was 18.7 µM (inactive), the GI50 (RXF 393) was 25 µM (inactive) and the GI50 (SF-268) was 32.6 µM (inactive). The GI50 (SF-295) was 18.6 µM (inactive), the GI50 (SF-539) was 19 µM (inactive) and the GI50 (SK-MEL-28) was 24.5 µM (inactive). The GI50 (SK-MEL-2) was 17.3 µM (inactive), the GI50 (SK-MEL-5) was 12.5 µM (inactive) and the GI50 (SK-OV-3) was 26.1 µM (inactive). For the same molecule, the GI50 (SN12C) was 29.5 µM (inactive), the GI50 (SNB-19) was 29.6 µM (inactive) and the GI50 (SNB-75) was 31.6 µM (inactive). The GI50 (SR) was 15.8 µM (inactive), the GI50 (SW-620) was 29.2 µM (inactive) and the GI50 (TK-10) was 23.8 µM (inactive). The GI50 (U-251) was 23.8 µM (inactive), the GI50 (UACC-257) was 17.9 µM (inactive) and the GI50 (UACC-62) was 14.5 µM (inactive). The GI50 (UO-31) was 14.7 µM (inactive).

Reference: ChEMBL document CHEMBL1201862, “PubChem BioAssay data set” (2004)
